Results reported in US20240246967A1, “AXL COMPOUNDS” (ARCUS BIOSCIENCES, INC., priority 2021, published 2024).

Tests used:
human TYRO3 = target: T1, human TYRO3 (Homo sapiens, UniProt Q06418); assay: HTRF KinEASE-TK biochemical potency assay, TYRO3; conditions: 1 nM TYRO3, 700 μM ATP, 800 nM TK Substrate-biotin
T1 construct: purchased Invitrogen
T1 sequence (Q06418 41-890): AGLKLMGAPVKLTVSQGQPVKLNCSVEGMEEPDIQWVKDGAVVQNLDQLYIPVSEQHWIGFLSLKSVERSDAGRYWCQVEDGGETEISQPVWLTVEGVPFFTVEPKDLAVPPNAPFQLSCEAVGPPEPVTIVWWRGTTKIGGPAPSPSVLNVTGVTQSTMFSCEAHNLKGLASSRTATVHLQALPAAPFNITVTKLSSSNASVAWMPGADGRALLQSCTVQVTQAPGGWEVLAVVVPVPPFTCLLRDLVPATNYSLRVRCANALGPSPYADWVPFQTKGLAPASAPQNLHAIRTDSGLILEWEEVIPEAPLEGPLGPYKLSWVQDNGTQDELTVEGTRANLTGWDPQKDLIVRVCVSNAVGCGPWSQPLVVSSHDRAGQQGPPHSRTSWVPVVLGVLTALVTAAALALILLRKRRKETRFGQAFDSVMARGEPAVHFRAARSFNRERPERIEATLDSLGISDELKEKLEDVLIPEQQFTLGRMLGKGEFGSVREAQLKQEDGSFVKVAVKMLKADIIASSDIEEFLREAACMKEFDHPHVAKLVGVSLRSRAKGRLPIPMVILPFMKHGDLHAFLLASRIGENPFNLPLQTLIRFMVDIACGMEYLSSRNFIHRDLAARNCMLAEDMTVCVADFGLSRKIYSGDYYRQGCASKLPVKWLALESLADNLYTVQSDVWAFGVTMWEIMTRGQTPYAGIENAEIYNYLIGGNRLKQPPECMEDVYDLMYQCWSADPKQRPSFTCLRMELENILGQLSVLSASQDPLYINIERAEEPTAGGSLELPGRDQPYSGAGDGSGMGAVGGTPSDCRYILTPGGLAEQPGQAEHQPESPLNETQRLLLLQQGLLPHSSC
In short: (§1)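 HTRF 665/620 nm read-out after streptavidin-XL665/anti-phosphotyrosine cryptate detection (1 h RT). Final reaction: 5 nM AXL or 1 nM TYRO3/MER, 800 nM TK substrate-biotin, 700 μM ATP, pH 7.4 HEPES buffer, 1% DMSO, 2 h RT, after 1 h enzyme–compound preincubation.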

human MER = target: T2, human MER (Homo sapiens, UniProt Q12866); assay: HTRF KinEASE-TK biochemical potency assay, MER; conditions: 1 nM MER, 700 μM ATP, 800 nM TK Substrate-biotin
T2 construct: purchased Invitrogen
T2 sequence (Q12866 21-999): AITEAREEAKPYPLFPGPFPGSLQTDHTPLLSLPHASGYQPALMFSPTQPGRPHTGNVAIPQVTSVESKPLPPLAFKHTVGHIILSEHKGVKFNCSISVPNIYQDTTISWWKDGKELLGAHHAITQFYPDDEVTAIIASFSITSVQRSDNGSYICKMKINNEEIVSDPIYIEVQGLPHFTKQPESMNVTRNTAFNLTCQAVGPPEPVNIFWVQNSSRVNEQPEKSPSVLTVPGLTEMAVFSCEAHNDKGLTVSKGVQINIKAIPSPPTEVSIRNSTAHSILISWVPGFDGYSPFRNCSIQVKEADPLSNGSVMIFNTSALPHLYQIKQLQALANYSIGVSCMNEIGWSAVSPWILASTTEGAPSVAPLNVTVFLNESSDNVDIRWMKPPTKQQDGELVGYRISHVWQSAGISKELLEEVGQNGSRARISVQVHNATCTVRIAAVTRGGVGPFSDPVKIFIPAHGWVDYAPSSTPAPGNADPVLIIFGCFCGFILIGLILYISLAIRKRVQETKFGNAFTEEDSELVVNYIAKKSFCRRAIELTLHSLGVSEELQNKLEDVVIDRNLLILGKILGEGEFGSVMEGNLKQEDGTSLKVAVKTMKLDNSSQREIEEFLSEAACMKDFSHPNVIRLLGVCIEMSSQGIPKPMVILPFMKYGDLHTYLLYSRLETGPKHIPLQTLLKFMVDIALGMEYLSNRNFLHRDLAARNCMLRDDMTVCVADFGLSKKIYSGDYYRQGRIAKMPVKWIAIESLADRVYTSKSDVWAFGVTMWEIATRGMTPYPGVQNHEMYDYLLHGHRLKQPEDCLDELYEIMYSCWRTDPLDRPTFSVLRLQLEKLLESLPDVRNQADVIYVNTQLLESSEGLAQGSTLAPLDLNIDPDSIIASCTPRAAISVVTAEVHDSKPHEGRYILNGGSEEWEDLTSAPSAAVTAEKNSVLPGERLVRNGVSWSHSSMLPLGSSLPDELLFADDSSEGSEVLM
In short: as §1

Compound	IC50 (human TYRO3)	IC50 (human MER)
Cc1cc2c(cc1-c1cnc3[nH]nc(-c4ccc(C(C)(C)O)c(Cl)c4)c3c1)CCC(N1CCC[C@H]1C)CC2 (stereo partly drawn) [Example 90, 2-[2-Chloro-4-(5-{3-methyl-7-[(2R)-2-methylpyrrolidin-1-yl]-6,7,8,9-tetrahydro-5H-benzo[7]annulen-2-yl}-1H-pyrazolo[3,4-b]pyridin-3-yl)phenyl]propan-2-ol]	> 1000 nM	> 1000 nM
C[C@@H]1CCCN1C1CCc2ccc(-c3cnc4[nH]nc(-c5ccc(C6(O)CCOC6)c(Cl)c5)c4c3)cc2CC1 (stereo partly drawn) [Example 63, 3-[2-Chloro-4-(5-{7-[(2R)-2-methylpyrrolidin-1-yl]-6,7,8,9-tetrahydro-5H-benzo[7]annulen-2-yl}-1H-pyrazolo[3,4-b]pyridin-3-yl)phenyl]oxolan-3-ol]	100 to 1000 nM	100 to 1000 nM
C[C@@H]1CCCN1C1CCc2ccc(-c3cnc4[nH]nc(-c5ccc(C6(O)COC6)c(Cl)c5)c4c3)cc2CC1 (stereo partly drawn) [Example 64, 3-[2-Chloro-4-(5-{7-[(2R)-2-methylpyrrolidin-1-yl]-6,7,8,9-tetrahydro-5H-benzo[7]annulen-2-yl}-1H-pyrazolo[3,4-b]pyridin-3-yl)phenyl]oxetan-3-ol]	100 to 1000 nM	> 1000 nM
O=C(c1ccc(-c2n[nH]c3ncc(-c4ccc5c(c4)CC[C@@H](N4CCCC4)CC5)cc23)cc1Cl)N1CCC(O)CC1 [Example 85, (S)-(2-Chloro-4-(5-(7-(pyrrolidin-1-yl)-6,7,8,9-tetrahydro-5H-benzo[7]annulen-2-yl)-1H-pyrazolo[3,4-b]pyridin-3-yl)phenyl)(4-hydroxypiperidin-1-yl)methanone]	< 100 nM	100 to 1000 nM
C[C@@H]1CCCN1C1(C)CCc2ccc(-c3cnc4[nH]nc(-c5ccc(C(=O)N6CCC6)cc5)c4c3)cc2CC1 (stereo partly drawn) [Example 76, (2R)-1-(2-{3-[4-(Azetidine-1-carbonyl)phenyl]-1H-pyrazolo[3,4-b]pyridin-5-yl}-7-methyl-6,7,8,9-tetrahydro-5H-benzo[7]annulen-7-yl)-2-methylpyrrolidine]	100 to 1000 nM	100 to 1000 nM
Cc1cc(-c2n[nH]c3ncc(-c4ccc5c(c4)CC[C@@H](N4CCCC4)CC5)cc23)cc(F)c1C(N)=O [Example 83, (S)-2-Fluoro-6-methyl-4-(5-(7-(pyrrolidin-1-yl)-6,7,8,9-tetrahydro-5H-benzo[7]annulen-2-yl)-1H-pyrazolo[3,4-b]pyridin-3-yl)benzamide]	< 100 nM	< 100 nM
C[C@@H]1CCCN1C1(C)CCc2ccc(-c3cnc4[nH]nc(-c5ccc(C(=O)NC6CCOCC6)cc5)c4c3)cc2CC1 (stereo partly drawn) [Example 88, 4-(5-(7-Methyl-7-((R)-2-methylpyrrolidin-1-yl)-6,7,8,9-tetrahydro-5H-benzo[7]annulen-2-yl)-1H-pyrazolo[3,4-b]pyridin-3-yl)-N-(tetrahydro-2H-pyran-4-yl)benzamide]	100 to 1000 nM	> 1000 nM
C[C@@H]1CCCN1C1(C)CCc2ccc(-c3cnc4[nH]nc(-c5ccc(C(=O)NC6CC6)cc5)c4c3)cc2CC1 (stereo partly drawn) [Example 69, N-Cyclopropyl-4-(5-{7-methyl-7-[(2R)-2-methylpyrrolidin-1-yl]-6,7,8,9-tetrahydro-5H-benzo[7]annulen-2-yl}-1H-pyrazolo[3,4-b]pyridin-3-yl)benzamide]	100 to 1000 nM	100 to 1000 nM
COC1CCN(C(=O)c2ccc(-c3n[nH]c4ncc(-c5ccc6c(c5)CCC(C)(N5CCC[C@H]5C)CC6)cc34)cc2Cl)CC1 (stereo partly drawn) [Example 67, 1-[2-Chloro-4-(5-{7-methyl-7-[(2R)-2-methylpyrrolidin-1-yl]-6,7,8,9-tetrahydro-5H-benzo[7]annulen-2-yl}-1H-pyrazolo[3,4-b]pyridin-3-yl)benzoyl]-4-methoxypiperidine]	< 100 nM	100 to 1000 nM
COC1CCN(C(=O)c2ccc(-c3n[nH]c4ncc(-c5ccc6c(c5)CCC(C)(N5CCC[C@H]5C)CC6)cc34)cc2)CC1 (stereo partly drawn) [Example 89, (4-Methoxypiperidin-1-yl)(4-(5-(7-methyl-7-((R)-2-methylpyrrolidin-1-yl)-6,7,8,9-tetrahydro-5H-benzo[7]annulen-2-yl)-1H-pyrazolo[3,4-b]pyridin-3-yl)phenyl)methanone]	100 to 1000 nM	100 to 1000 nM
CC(C)NC(=O)c1ccc(-c2n[nH]c3ncc(-c4ccc5c(c4)CCC(C)(N4CCC[C@H]4C)CC5)cc23)cc1 (stereo partly drawn) [Example 70, 4-(5-{7-Methyl-7-[(2R)-2-methylpyrrolidin-1-yl]-6,7,8,9-tetrahydro-5H-benzo[7]annulen-2-yl}-1H-pyrazolo[3,4-b]pyridin-3-yl)-N-(propan-2-yl)benzamide]	100 to 1000 nM	> 1000 nM

The remaining lines, values ahead:

IC50 (human TYRO3)	IC50 (human MER)	Compound
< 100 nM	< 100 nM	CCC1(N2CCC[C@@H]2CO)CCc2ccc(-c3cnc4[nH]nc(-c5ccc(C(N)=O)c(Cl)c5)c4c3)cc2CC1 (stereo partly drawn) [Example 74, 2-Chloro-4-(5-{7-ethyl-7-[(2R)-2-(hydroxymethyl)pyrrolidin-1-yl]-6,7,8,9-tetrahydro-5H-benzo[7]annulen-2-yl}-1H-pyrazolo[3,4-b]pyridin-3-yl)benzamide]
< 100 nM	100 to 1000 nM	NC(=O)c1ccc(-c2n[nH]c3ncc(-c4ccc5c(c4)CCC(N4CCCC4)CC5)cc23)cc1C(F)(F)F (stereo not shown) [Example 80, 4-(5-(7-(Pyrrolidin-1-yl)-6,7,8,9-tetrahydro-5H-benzo[7]annulen-2-yl)-1H-pyrazolo[3,4-b]pyridin-3-yl)-2-(trifluoromethyl)benzamide]
< 100 nM	< 100 nM	NC(=O)c1ccc(-c2n[nH]c3ncc(-c4ccc5c(c4)CC[C@@H](N4CCCC4)CC5)cc23)cc1Cl [Example 84, (S)-2-Chloro-4-(5-(7-(pyrrolidin-1-yl)-6,7,8,9-tetrahydro-5H-benzo[7]annulen-2-yl)-1H-pyrazolo[3,4-b]pyridin-3-yl)benzamide]
< 100 nM	< 100 nM	C[C@@H]1CCCN1C1(C)CCc2ccc(-c3cnc4[nH]nc(-c5ccc(S(N)(=O)=O)c(Cl)c5)c4c3)cc2CC1 (stereo partly drawn) [Example 93, 2-Chloro-4-(5-(7-methyl-7-((R)-2-methylpyrrolidin-1-yl)-6,7,8,9-tetrahydro-5H-benzo[7]annulen-2-yl)-1H-pyrazolo[3,4-b]pyridin-3-yl)benzenesulfonamide]
< 100 nM	< 100 nM	C[C@@H]1CCCN1C1(C)CCc2ccc(-c3cnc4[nH]nc(-c5ccc(C(N)=O)c(Cl)c5)c4c3)cc2CC1 (stereo partly drawn) [Example 68, 2-Chloro-4-(5-{7-methyl-7-[(2R)-2-methylpyrrolidin-1-yl]-6,7,8,9-tetrahydro-5H-benzo[7]annulen-2-yl}-1H-pyrazolo[3,4-b]pyridin-3-yl)benzamide]
< 100 nM	100 to 1000 nM	NS(=O)(=O)c1ccc(-c2n[nH]c3ncc(-c4ccc5c(c4)CC[C@@H](N4CCCC4)CC5)cc23)cc1Cl [Example 91, (S)-2-Chloro-4-(5-(7-(pyrrolidin-1-yl)-6,7,8,9-tetrahydro-5H-benzo[7]annulen-2-yl)-1H-pyrazolo[3,4-b]pyridin-3-yl)benzenesulfonamide]
